Marks after values point to notes of the source that are not given here.
Assays:
[1] = Stability in the presence of a pyrazolone by 1H NMR (mechanistic study); assay type: physicochemical
Protocol: A ^1H NMR Spectroscopy Protocol was used to confirm the formation of nitroso carbonyls following decomposition of compound 5. In this protocol, 0.5 mM Compound 5 was incubated in the presence of 0.5 mM 3,4-dimethyl-N-phenylpyrazolone in 0.25 M phosphate buffer with 0.2 mM DTPA at pH 7.4, 80% H2O, 10% D2O, and 10% DMSO-d6 at 37° C. under argon. Spectra were collected at the start of the experiment and after complete decomposition.
To eliminate the possibility of direct attack of 3,4-dimethyl-1-phenyl-1H-pyrazol-5(4H)-one on the amidic nitrogen of hydroxamic acid moiety in Compound 1 through a SN2 reaction (Glover, S. A.; Rauk, A.; Buccigross, J. M.; Campbell. J. J.; Hammond, G. P.; Guoning, M.; Andrews. L. E.: Gillson, A. M. Can. J. Chem. 2005, 83, 1492-1509), the stability of Compound 11 in the presence of 4-(acetyl-O-methoxyoxime)-N-phenyl-3-methyl-pyrazolone was confirmed by ^1H NMR.

[2] = Stability (half-life of donor decomposition) via 1H NMR protocol; assay type: physicochemical; details: 5 mM donor in 10% DMSO-d6, 10% D2O, 80% H2O, phosphate buffer (0.25M) with DTPA (0.2 mM), pH 7.4, 37° C., under argon
From the text: A ^1H NMR spectroscopy protocol was used to measure the half-life of donor decomposition by quantifying donor and the corresponding byproduct as a function of time (Guthrie, D. A.; Ho, A.; Takahashi, C. G.; Collins, A.; Morris, M.; Toscano, J. P. J. Org. Chem. 2015, 80, 1338-1348; and Guthrie, D. A.; Nourian, S.; Takahashi, C. G.; Toscano, J. P. J. Org. Chem. 2015, 80, 1349-1356). Based on distinctive chemical shifts of the compounds of the disclosure and their corresponding byproducts, the decomposition of the compounds of the disclosure and release of their byproduct was easily monitored. Utilizing this assay, the half-lives of particular compounds of the disclosure were determined under physiologically relevant conditions (Table 2).

[3] = Decomposition kinetics via UV-VIS protocol (growth of pyrazolone byproduct absorbance); assay type: physicochemical; details: phosphate buffer; for decomposition (UV-VIS, in words): pH 7.4, 37° C.
Protocol: (§1) A UV-VIS protocol was used to determine the decomposition kinetics of compounds 1, 3, 5 and 6. According to this protocol, decomposition of Compound 5, was monitored by examining the growth of the distinctive absorbance of the pyrazolone byproduct (λ=265 nm) at pH 7.4 and 37° C. in phosphate buffer as a function of pH (Guthrie, D. A., Kim, N. Y., Siegler, M. A.; Moore, C. D., Toscano, J. P. J. Am. Chem. Soc. 2012, 134, 1962-1965; and Guthrie, D. A.; Ho, A.; Takahashi, C. G.; Collins, A., Morris, M.; Toscano, J. P. J. Org. Chem. 2015, 80, 1338-1348). The decomposition of rate is pH-dependent, and based on the experimental kinetic data, the pKa of Compound 5 was estimated to be 10.7. Following this protocol, the decomposition kinetics for compounds […] were determined. […] Thus, the pKa values of Compounds 1 (10.0) and 3 (9.1) in 50% (v/v) aqueous ethanol were measured by titration with NaOH solution.

[4] = Nitroxyl (HNO) production via N2O quantification in the headspace (GC), relative to Angeli's salt; details: N2O headspace analysis, 0.1 mM, 37° C. (SEM ± 5%; n = 3)
From the text: Nitrous oxide (N2O) is produced via the dimerization and dehydration of HNO, and is the most common marker for nitroxyl production (Fukuto et al., Chem. Res. Toxicol. 18:790-801 (2005)). […] Using either nitrous oxide gas or Angeli's salt (“AS”) as a standard, the relative amounts of N2O released from compounds of the disclosure is examined via gas chromatography (“GC”) headspace analysis.
Another procedure for determining N2O released from compounds of the disclosure is as follows. A Varian CP-3800 instrument equipped with a 1041 injector, electron capture detector, and a 25 m 5 Å molecular sieve capillary column was applied for the analysis of nitrous oxide (N2O). Grade 5.0 nitrogen was used as both the carrier (8 mL/min) and the make-up (22 mL/min) gas. For all the measurements, the column oven temperature was kept constant at 150° C., and the injector oven and the detector oven were held at 200° C. and 300° C., respectively. A 100 μL gastight syringe with a sample-lock was used for all gas injections. Samples were prepared in 6 mL Wheaton Clr headspace vials with volumes pre-measured for sample uniformity (actual vial volume ranges from 5.8-6.3 mL). Vials were charged with 3 mL of phosphate buffer containing the metal chelator, diethylenetriaminepentaacetic acid (DTPA), and fit with rubber septa and 20 mm aluminum seals. The vials were purged with argon and equilibrated for at least 10 minutes at 37° C. in a dry block heater. A 10 mM stock solution of Angeli's salt (AS) was prepared in 10 mM sodium hydroxide, and compounds of the disclosure (10 mM) were prepared in acetonitrile and used immediately after preparation. 30 μL of the stock solutions was transferred into vials using a gastight syringe, yielding final concentrations of 0.1 mM. Substrates were then incubated long enough to ensure complete decomposition and equilibration of N2O with the headspace. For each sample, 60 μL of the headspace was sampled and injected three times using a gastight syringe with a sample lock. The N2O yield was averaged and reported relative to the standard, Angeli's salt. HNO yields were measured either at the half-life of the donor or after complete decomposition of the donor and are reported relative to the standard HNO donor, Angeli's salt, as determined by N2O headspace analysis (SEM±5%; n=3).

[5] = pKa by titration with NaOH solution; assay type: physicochemical; details: 50% (v/v) aqueous ethanol
Protocol: as §1

[6] = HNO yield after complete decomposition of the donor
[7] = HNO yield at the half-life of the donor

stability in the presence of 4-(acetyl-O-methoxyoxime)-N-phenyl-3-methyl-pyrazolone [1] | half-life at 5 mM [2] [min] | pKa ([3]; estimated from pH-dependent decomposition kinetic data, 37° C.) | decomposition (UV-VIS, in words) [3] | pKa [5] | Compound | % HNO [4, 6] | % HNO [4, 7]
confirmed |  |  |  |  | CC(=O)N(O)C1(C)C(=O)N(c2ccccc2)N=C1C (stereo not shown) [Compound 11, N-hydroxy-N-(3,4-dimethyl-5-oxo-1-phenyl-4,5-dihydro-1H-pyrazol-4-yl)-acetamide] |  | 
 | 25 | 10.7 |  |  | CO/N=C(\C)C1(N(O)C(=O)N(C)C)C(=O)N(c2ccccc2)N=C1C (stereo not shown) [Compound 5, 1-hydroxy-1-(4-(1-(methoxyimino)ethyl)-3-methyl-5-oxo-1-phenyl-4,5-dihydro-1H-pyrazol-4-yl)-3,3-dimethylurea] | >95^b % | 
 | 5760 |  |  |  | CO/N=C(\C)C1(N(O)C(=O)OC)C(=O)N(C)N=C1C (stereo not shown) [Compound 4, Methyl hydroxy(4-(1-(methoxyimino)ethyl)-1,3-dimethyl-5-oxo-4,5-dihydro-1H-pyrazol-4-yl)carbamate] |  | 94^a %
 | 46 |  |  |  | CO/N=C(\C)C1(N(O)C(=O)N(C)C)C(=O)N(C)N=C1C (stereo not shown) [Compound 6, 1-hydroxy-1-(4-(1-(methoxyimino)ethyl)-1,3-dimethyl-5-oxo-4,5-dihydro-1H-pyrazol-4-yl)-3,3-dimethylurea] | >95^b % | 
 | 2880 |  | decomposed slowly | 9.1 | CO/N=C(\C)C1(N(O)C(=O)OC)C(=O)N(c2ccccc2)N=C1C (stereo not shown) [Compound 3, Methyl hydroxy(4-(1-(methoxyimino)ethyl)-3-methyl-5-oxo-1-phenyl-4,5-dihydro-1H-pyrazol-4-yl)carbamate] |  | 104^a %
 | 7200 |  | stable for 1 hour | 10 | CO/N=C(\C)C1(N(O)C(C)=O)C(=O)N(c2ccccc2)N=C1C (stereo not shown) [Compound 1, N-hydroxy-N-(4-(1-(methoxyimino)ethyl)-3-methyl-5-oxo-1-phenyl-4,5-dihydro-1H-pyrazol-4-yl)acetamide] |  | 82^a %

— US10583141B2, “N-substituted hydroxamic acids with carbon-based leaving groups as efficient HNO donors and uses thereof” (The Johns Hopkins University, priority 2015, dated 2020)
